We go through 28 molecules from paper PMC6401531 (ChemistryOpen, 2019).

pEC50: −log10 of the molar value. Where “and” joins values, the source holds several entries; their conditions need not be identical. Equal values may be shown once. Read-outs that look alike come from different tables or passages of the source.

For one experiment, the target named is gpH1R (ileum) (Cavia porcellus, UniProt P31389). The experiment is described as follows: Organ bath study on isolated guinea pig ileum.
In experiment [1] the target is T1, gpH2R (atrium) (Cavia porcellus, UniProt P47747). In words: Organ bath study on isolated guinea pig right atrium. Conditions: for Emax gpH2R: maximal response relative to maximal increase in heart rate induced by histamine (Emax=1.00).
In the next experiment the target is hH2R (Homo sapiens, UniProt P25021+P63092). The experiment is described as follows: [35S]GTPγS binding assay, Sf9 membranes. The format is biochemical.
The next experiment addresses hH3R (Homo sapiens, UniProt Q9Y5N1). The experiment is described as follows: [35S]GTPγS binding assay, Sf9 membranes. The format is biochemical. A general note: GTPγS resists hydrolysis and so accumulates on activated G proteins.
A further experiment addresses hH4R (Homo sapiens, UniProt Q9H3N8). The experiment is described as follows: [35S]GTPγS binding assay, Sf9 membranes. The format is biochemical.
Experiment [2] has as its target T1, gpH2R (atrium). Conditions: guinea-pig right atrium, cited from earlier work.
Setting [3] is: [35S]GTPγS binding, maximal response relative to histamine (Emax=1.00).

Sequence of gpH1R (ileum) (P31389 whole entry): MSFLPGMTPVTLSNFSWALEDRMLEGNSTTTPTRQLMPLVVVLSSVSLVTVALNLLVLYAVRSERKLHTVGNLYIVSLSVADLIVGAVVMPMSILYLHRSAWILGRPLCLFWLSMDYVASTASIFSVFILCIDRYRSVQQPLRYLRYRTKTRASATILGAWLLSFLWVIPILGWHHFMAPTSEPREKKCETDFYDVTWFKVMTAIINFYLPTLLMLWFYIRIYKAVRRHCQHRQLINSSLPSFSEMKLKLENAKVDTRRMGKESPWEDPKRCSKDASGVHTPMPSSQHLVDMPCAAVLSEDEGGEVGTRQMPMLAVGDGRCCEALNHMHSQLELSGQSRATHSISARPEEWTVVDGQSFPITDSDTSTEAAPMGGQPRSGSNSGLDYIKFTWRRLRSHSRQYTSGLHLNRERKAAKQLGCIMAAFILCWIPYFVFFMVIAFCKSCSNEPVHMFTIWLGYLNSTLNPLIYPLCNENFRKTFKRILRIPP
Sequence of hH3R (Q9Y5N1 whole entry): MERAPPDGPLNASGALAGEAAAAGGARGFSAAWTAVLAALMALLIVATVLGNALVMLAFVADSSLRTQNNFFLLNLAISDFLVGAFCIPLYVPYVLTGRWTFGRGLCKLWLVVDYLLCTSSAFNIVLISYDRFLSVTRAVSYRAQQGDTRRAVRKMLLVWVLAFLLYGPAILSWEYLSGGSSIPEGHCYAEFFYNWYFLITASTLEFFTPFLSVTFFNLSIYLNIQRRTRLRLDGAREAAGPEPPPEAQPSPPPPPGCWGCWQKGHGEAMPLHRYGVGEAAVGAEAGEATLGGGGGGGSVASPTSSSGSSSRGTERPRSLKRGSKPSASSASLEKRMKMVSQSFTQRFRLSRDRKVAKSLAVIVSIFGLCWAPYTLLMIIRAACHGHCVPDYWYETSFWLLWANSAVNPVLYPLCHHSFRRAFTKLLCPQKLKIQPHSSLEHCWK
Sequence of hH4R (Q9H3N8 whole entry): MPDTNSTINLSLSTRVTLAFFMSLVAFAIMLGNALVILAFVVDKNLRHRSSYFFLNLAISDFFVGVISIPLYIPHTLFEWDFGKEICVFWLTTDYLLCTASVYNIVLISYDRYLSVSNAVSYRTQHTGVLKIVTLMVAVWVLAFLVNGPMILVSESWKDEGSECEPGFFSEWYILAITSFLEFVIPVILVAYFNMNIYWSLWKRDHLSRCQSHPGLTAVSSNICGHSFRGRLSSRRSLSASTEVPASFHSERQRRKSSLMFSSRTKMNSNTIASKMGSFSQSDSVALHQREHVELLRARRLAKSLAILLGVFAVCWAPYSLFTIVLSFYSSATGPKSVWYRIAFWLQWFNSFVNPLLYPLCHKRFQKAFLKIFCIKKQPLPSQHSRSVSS
T1 sequence (P47747 whole entry): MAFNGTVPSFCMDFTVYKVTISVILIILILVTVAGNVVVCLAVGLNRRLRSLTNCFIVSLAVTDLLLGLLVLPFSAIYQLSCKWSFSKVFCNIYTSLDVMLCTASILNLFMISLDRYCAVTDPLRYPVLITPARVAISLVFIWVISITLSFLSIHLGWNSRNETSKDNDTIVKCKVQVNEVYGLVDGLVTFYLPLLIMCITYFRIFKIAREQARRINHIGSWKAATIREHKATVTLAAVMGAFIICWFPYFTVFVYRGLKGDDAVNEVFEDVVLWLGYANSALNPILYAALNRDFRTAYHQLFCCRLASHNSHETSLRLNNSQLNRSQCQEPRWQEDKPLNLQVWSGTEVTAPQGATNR

In general, pEC50 refers to the EC50 on a negative log10 scale, so that one unit is a factor of ten. On to `N=C(N)NCCCCNC(=N)NCCCc1c[nH]cn1` [compound 123], for which, on gpH1R (ileum), the Kb is 2630 nM. Besides, at gpH2R (atrium) [1], the pEC50 is 7.30; the “Emax gpH2R” value was 1.03 and 1.03±0.03.
As to `O=C(NC(=S)NCCCc1c[nH]cn1)c1ccccc1` [compound 141, N‐{[3‐(1H‐Imidazol‐4‐yl)propyl]thiocarbamoyl}benzamide], on gpH2R (atrium) [1], the pEC50 was 4.73 and the “Emax gpH2R” value worked out at 0.43±0.01.
Take `Cc1nc(N)sc1CCCNC(=N)NCCCCCCCCCCCCNC(=N)N` [compound 130]: the “Emax hH2R” value on hH2R is 0.22 and 0.22±0.01. Also, the “Emax hH3R” value at hH3R was −1.21±0.10. In addition, the Kb at gpH1R (ileum) is 174 nM. Also, at gpH2R (atrium) [1], the pEC50 is 7.02 and the “Emax gpH2R” value was determined as 0.90±0.04.
In the case of `NCCc1c[nH]cn1` [compound 1, histamine, reference compound], the “Emax hH2R” value at hH2R (setting [3]) amounted to 1.00. The “Emax hH3R” value at hH3R (setting [3]) stood at 1.00. Also, on hH4R (setting [3]), the “Emax hH4R” value came to 1.00. For the same molecule, at gpH2R (atrium) [1], the “Emax gpH2R” value came to 1.00.
On gpH1R (ileum), `N=C(NCCCCCCCCNC(N)=O)NCCCc1c[nH]cn1` [compound 135] had a Kb of 1410 nM. Besides, on gpH2R (atrium) [1], the negative-log EC50 (pEC50) is 6.74 and the “Emax gpH2R” value is reported as 0.94±0.05.
For `N=C(N)NCCCCCCCCNC(=N)NCCCc1c[nH]cn1` [compound 125], at gpH1R (ileum), the Kb was 1620 nM. Also, at gpH2R (atrium) [1], the pEC50 is 7.69; the “Emax gpH2R” value is 0.83 and 0.83±0.07.
For `N=C(NCCCCCCCCCCNC(N)=O)NCCCc1c[nH]cn1` [compound 136], at hH2R, the “Emax hH2R” value was 0.45 and 0.45±0.03. For the same molecule, the “Emax hH3R” value at hH3R is on record as −1.20±0.15. At gpH1R (ileum), the Kb is 1000 nM. Also, on gpH2R (atrium) [1], the pEC50 was 6.53 and the “Emax gpH2R” value stood at 0.96±0.01.
Regarding `N=C(N)NCCCCCCCCCCNC(=N)NCCCc1c[nH]cn1` [compound 126], the Kb at gpH1R (ileum) is 251 nM. Besides, on gpH2R (atrium) [1], the pEC50 is 7.56 and the “Emax gpH2R” value is listed as 0.80±0.02.
Taken in the same sequence, the figures for `N=C(NCCCN)NCCCc1c[nH]cn1` [compound 115, 1‐(3‐Aminopropyl)‐3‐[3‐(1H‐imidazol‐4‐yl)propyl]guanidine] were 16600 nM, 5.33 and 0.88±0.05.
Taken in the same sequence, the figures for `N=C(NCCCCN)NCCCc1c[nH]cn1` [compound 116] were 3800 nM, 5.13 and 0.68±0.02.
With `NC(=S)NCCCc1c[nH]cn1` [compound 142], at gpH2R (atrium) [1], the pEC50 was 4.96 and the “Emax gpH2R” value turned out to be 0.27±0.02.
`O=C(NCCCc1c[nH]cn1)NC(=O)c1ccccc1` [compound 144]: at gpH1R (ileum), the Kb is 9550 nM. In addition, at gpH2R (atrium) [1], the pEC50 was 4.62 and the “Emax gpH2R” value came to 0.15±0.03.
Turning to `Cc1nc(N)sc1CCCNC(=N)NCCCCCCCCCCCCN` [compound 121], the “Emax hH2R” value on hH2R was 0.22 and 0.22±0.01. The “Emax hH3R” value at hH3R was −0.69±0.03. Also, at hH4R, the “Emax hH4R” value stood at 0 and the Kb worked out at 178000 nM. For the same molecule, on gpH1R (ileum), the Kb came out at 70.8 nM. Moreover, at gpH2R (atrium) [1], the pEC50 is 6.49 and the “Emax gpH2R” value stood at 0.71±0.03.
As for `N=C(NCCCCCCNC(N)=O)NCCCc1c[nH]cn1` [compound 134], the Kb at gpH1R (ileum) was 7410 nM. For the same molecule, at gpH2R (atrium) [1], the pEC50 is 6.17 and the “Emax gpH2R” value is 0.96±0.03.
At gpH1R (ileum), `CSC(=N)NCCCc1c[nH]cn1` [compound 143, N‐[3‐(1H‐Imidazol‐4‐yl)propyl]‐S‐methylisothiourea] had a Kb of 3890 nM. In addition, at gpH2R (atrium) [1], the pEC50 is 5.13; the “Emax gpH2R” value is 0.45 and 0.45±0.05. Also, the rel. potency at gpH2R (atrium) [2] (relative to histamine) is 0.1. The maximum response at gpH2R (atrium) [2] is 0.23.
On gpH1R (ileum), `N=C(NCCCCCCCCCCCCN)NCCCc1cnc(N)s1` [compound 122] had a Kb of 9.33 nM. Moreover, on gpH2R (atrium) [1], the pEC50 is 6.63 and the “Emax gpH2R” value is given as 0.90±0.05.
As for `N=C(NCCCCCCN)NCCCc1c[nH]cn1` [compound 117], the Kb on gpH1R (ileum) was 6310 nM. At gpH2R (atrium) [1], the pEC50 is 6.42 and the “Emax gpH2R” value was determined as 0.79±0.01.
Consider `N=C(NCCCCCCCCCCN)NCCCc1c[nH]cn1` [compound 119], for which the Kb on gpH1R (ileum) was 676 nM. For the same molecule, on gpH2R (atrium) [1], the pEC50 is 6.41 and the “Emax gpH2R” value worked out at 0.78±0.01.
The matching figures for `Cc1nc(N)sc1CCCNC(=N)NCCCCCCCCNC(=N)N` [compound 128]: 214 nM, 6.87 and 0.72±0.02.
Take `N=C(NCCCCCCCCN)NCCCc1c[nH]cn1` [compound 118]: at gpH1R (ileum), the Kb was 1290 nM. On gpH2R (atrium) [1], the pEC50 is 6.51 and the “Emax gpH2R” value worked out at 0.75±0.10.
`N=C(N)NCCCCCCCCCCCCNC(=N)NCCCc1c[nH]cn1` [compound 127]: the “Emax hH2R” value at hH2R came out at 0.45±0.03. Also, at hH3R, the “Emax hH3R” value amounted to 0 and the Kb turned out to be 66.1 nM. On hH4R, the “Emax hH4R” value is reported as 0 and the Kb turned out to be 417000 nM. The Kb at gpH1R (ileum) was 60.3 nM. For the same molecule, on gpH2R (atrium) [1], the pEC50 is 7.25 and the “Emax gpH2R” value was found to be 0.77±0.07.
Molecule `N=C(NCCCNC(N)=O)NCCCc1c[nH]cn1` [compound 132] had a Kb on gpH1R (ileum) of 9120 nM. Further, on gpH2R (atrium) [1], the pEC50 is 5.61 and the “Emax gpH2R” value is reported as 0.89±0.03.
On to `N=C(N)NCCCCCCCCNC(=N)NCCCc1cnc(N)s1` [compound 129], for which the Kb on gpH1R (ileum) was 50.1 nM. On gpH2R (atrium) [1], the pEC50 was 7.41 and the “Emax gpH2R” value is recorded as 1.00±0.01.
Regarding `N=C(NCCCCCCCCCCCCN)NCCCc1c[nH]cn1` [compound 120], on hH2R, the “Emax hH2R” value is given as 0.66±0.01. For the same molecule, at hH3R, the “Emax hH3R” value was 0 and the Kb was 191 nM. Further, at hH4R, the “Emax hH4R” value is on record as 0 and the Kb is 372000 nM. The molecule further gave a Kb on gpH1R (ileum) of 112 nM. On gpH2R (atrium) [1], the pEC50 is 6.86; the “Emax gpH2R” value is 1.00 and 1.00±0.06.
At gpH1R (ileum), `NC(=O)NCCCc1c[nH]cn1` [compound 145, 1‐[3‐(1H‐Imidazol‐4‐yl)propyl]urea] showed a Kb of over 31600 nM. At gpH2R (atrium) [1], the negative logarithm of the EC50 (pEC50) is 3.57 and the “Emax gpH2R” value is reported as 0.58±0.02.
The matching figures for `N=C(NCCCCNC(N)=O)NCCCc1c[nH]cn1` [compound 133]: 6030 nM, 6.54 and 1.03±0.03.
For `N=C(N)NCCCCCCNC(=N)NCCCc1c[nH]cn1` [compound 124], the Kb at gpH1R (ileum) was 933 nM. Also, on gpH2R (atrium) [1], the pEC50 was 7.67 and the “Emax gpH2R” value worked out at 0.94±0.02.
`N=C(N)NCCCCCCCCCCCCNC(=N)NCCCc1cnc(N)s1` [compound 131]: the Kb on gpH1R (ileum) is 8.71 nM. Also, at gpH2R (atrium) [1], the pEC50 is 6.93 and the “Emax gpH2R” value came out at 0.85±0.05.
